The RepoRT retention time repository (doi:10.1016/j.chroma.2015.11.014)

Test: RP, Agilent ZORBAX Eclipse Plus C18, 150 × 2.1 mm, 3.5 µm, 40 °C, 0.3 mL/min, estimated dead time 1.1 min; A: water + 0.1% formic acid; B: acetonitrile + 0.1% formic acid; gradient (min/%B) 0/2 1/2 2/20 16.5/98 22/98
Settings: stereoisomer not certain

| LC retention time [min] | Structure (SMILES) |
| --- | --- |
| 5.9 | O=C(CO)Nc1ccccc1 |
| 2.08 | O=C(O)CC(O)(CC(=O)O)C(=O)O |
| 4.67 | Cc1ccccc1N=C(N)N=C(N)N |
| 5.28 | Nc1cccc2[nH]c(-c3ccccc3)nc12 |
| 8.21 | CC(C(=O)O)c1ccc(CC(C)(C)O)cc1 (stereo not given) |
| 5.09 | Nc1nc(NC2CC2)c2ncn(C3C=CC(CO)C3)c2n1 (stereo not given) |
| 9.96 | CC12CC=C3c4ccc(O)cc4CCC3C1CCC2(O)CC#N (stereo not given) |
| 7.59 | COC(=O)c1ccc(O)cc1 |
| 7.56 | OCc1coc(-c2ccccc2)n1 |
| 5.24 | On1nnc2ccccc21 |
| 5.59 | CC(=O)Nc1c(C)n(C)n(-c2ccccc2)c1=O |
| 5.15 | NC12CC3CC(CC(C3)C1)C2 |
| 6.42 | CC(O)CCCCn1c(=O)c2c(ncn2C)n(C)c1=O (stereo not given) |
| 7.25 | COc1ccc(C(C[N+](C)(C)[O-])C2(O)CCCCC2)cc1 (stereo not given) |
| 11.3 | CCCCCCCCCCC(C(=O)c1ccc(OC)cc1)[N+](C)(C)C (stereo not given) |
| 7.24 | O=P(O)(c1ccccc1)c1ccccc1 |
| 11.7 | CCCCCCCC[N+](C)(C)CCCCCCCC |
| 7.09 | O=S(=O)(O)c1ccc2ccccc2c1 |
| 9.57 | CCCCC[N+](CCCC)(CCCC)CCCC |
| 5.64 | NC(=O)c1ccccc1 |

| LC retention time [min] | Structure (SMILES) |
| --- | --- |
| 4.47 | CC(=O)Nc1ccc(O)c(O)c1 |
| 5.42 | CCNCC(O)COc1ccc(CCOC)cc1 (stereo not given) |
| 7.63 | Cc1cccc(Nc2ccncc2S(=O)(=O)NC(=O)NC(C)C)c1 |
| 12.7 | CCCCCCCCCCCCOCC[N+](C)(C)Cc1ccccc1 |
| 12.2 | CSc1nc2ccccc2s1 |
| 11.4 | CCCCC(=O)N(Cc1ccc(-c2ccccc2-c2nn[nH]n2)cc1)C(C(=O)O)C(C)C (stereo not given) |
| 2.06 | CC(=O)OCC[N+](C)(C)C |
| 13.1 | CCCCC1C(=O)N(c2ccccc2)N(c2ccccc2)C1=O |
| 2.73 | CNCC(O)c1cccc(O)c1 (stereo not given) |
| 4.71 | Cc1c(N(C)C)c(=O)n(-c2ccccc2)n1C |
| 5.96 | CCCC(=O)Nc1ccc(OCC(O)CNC(C)C)c(C(C)=O)c1 (stereo not given) |
| 13.8 | CCC(CCC(C)O)COC(=O)C(C#N)=C(c1ccccc1)c1ccccc1 (stereo not given) |
| 6.66 | CCCOc1ccc2nc(NC(=O)OC)[nH]c2c1 |
| 11.2 | CCCCCCCCCCC(C(=O)OC)[N+](C)(C)Cc1ccccc1 (stereo not given) |
| 6.46 | COc1ccc2nc(S(=O)Cc3ncc(C)c(OC)c3C)[nH]c2c1 (stereo not given) |
| 7.43 | COc1cc2c(cc1OC)C(=O)C(CC1CCN(Cc3ccccc3)CC1)C2 (stereo not given) |
| 4.77 | CNCc1ccc(CSCCNC(=C[N+](=O)[O-])NC)o1 |
| 12.8 | CCCCCCCCCCCCCCCC[N+](C)(C)C |
| 7.56 | CNCCOC(c1ccccc1)c1ccccc1 |
| 16.9 | CCCCCCCCCCCCCC[N+](C)(C)CCCCCCCCCCCCCC |

| Structure (SMILES) | LC retention time [min] |
| --- | --- |
| CCNc1nc(NC(C)C)nc(SC)n1 | 8.65 |
| Nc1ncnc2c1ncn2CCOCP(=O)(O)O | 2.12 |
| CC(C)OP(=O)(Oc1ccccc1)Oc1ccccc1 | 12.8 |
| CCOP(=S)(OCC)Oc1cc(C)nc(C(C)C)n1 | 14.5 |
| CCC(CC)Nc1c([N+](=O)[O-])cc(C)c(C)c1[N+](=O)[O-] | 16.2 |
| CSc1nc(NC(C)C)nc(NC(C)C)n1 | 9.53 |
| O=P(Oc1ccccc1)(Oc1ccccc1)Oc1cccc(OP(=O)(Oc2ccccc2)Oc2ccccc2)c1 | 15.9 |
| CCCCP(=O)(O)O | 4.77 |
| CN(C)CC1CCCCC1(O)c1cccc(O)c1 (stereo not given) | 5.39 |
| C#CCC1=C(C)C(OC(=O)C2C(C=C(C)C)C2(C)C)CC1=O (stereo not given) | 14.9 |
